Entries after “also recorded” stand apart in the source; their conditions may differ. Read-outs that look alike come from different tables or passages of the source.
Experiments:
yeast α-glucosidase = yeast α-glucosidase (Saccharomyces cerevisiae, UniProt P53341); assay: biochemical; format: biochemical
α-glucosidase [1] = molecular target: α-glucosidase; set-up: method as in doi:10.1007/s00044-020-02603-7; conditions: template compounds A, read-out: IC50 for Compounds A (Fig. 3); cited from earlier work
[2] = molecular target: T1, α-amylase (pancreatic form) (Homo sapiens, UniProt P04746); assay: α-Amylase inhibition assay; format: biochemical; conditions: read-out: IC50 against α-amylase
T1 sequence (P04746 16-511): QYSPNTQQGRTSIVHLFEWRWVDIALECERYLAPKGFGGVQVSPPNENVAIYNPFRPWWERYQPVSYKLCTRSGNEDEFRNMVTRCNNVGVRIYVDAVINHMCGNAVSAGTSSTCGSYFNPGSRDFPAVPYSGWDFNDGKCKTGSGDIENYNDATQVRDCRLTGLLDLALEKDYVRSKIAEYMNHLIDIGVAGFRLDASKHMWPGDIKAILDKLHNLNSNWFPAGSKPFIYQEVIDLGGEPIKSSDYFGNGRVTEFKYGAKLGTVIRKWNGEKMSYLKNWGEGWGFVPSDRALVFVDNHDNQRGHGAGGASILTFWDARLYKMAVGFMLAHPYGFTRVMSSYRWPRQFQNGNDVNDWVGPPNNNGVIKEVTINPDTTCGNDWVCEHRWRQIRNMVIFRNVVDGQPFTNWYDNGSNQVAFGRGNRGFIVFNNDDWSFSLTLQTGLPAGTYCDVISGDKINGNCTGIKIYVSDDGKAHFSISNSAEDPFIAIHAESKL
Protocol: Inhibitory activity of the most poten new α-glucosidase inhibitors 5k, 5j, and 5f was evaluated against α-amylase (pancreatic form)[15].
(Supplementary Information S1).

α-glucosidase [3] = molecular target: α-glucosidase (Saccharomyces cerevisiae, UniProt P53341); assay: Kinetics of α-glucosidase inhibition (Lineweaver–Burk plot and secondary plot); format: biochemical, yeast
Chain of α-glucosidase (Saccharomyces cerevisiae, UniProt P53341) (P53341 whole entry): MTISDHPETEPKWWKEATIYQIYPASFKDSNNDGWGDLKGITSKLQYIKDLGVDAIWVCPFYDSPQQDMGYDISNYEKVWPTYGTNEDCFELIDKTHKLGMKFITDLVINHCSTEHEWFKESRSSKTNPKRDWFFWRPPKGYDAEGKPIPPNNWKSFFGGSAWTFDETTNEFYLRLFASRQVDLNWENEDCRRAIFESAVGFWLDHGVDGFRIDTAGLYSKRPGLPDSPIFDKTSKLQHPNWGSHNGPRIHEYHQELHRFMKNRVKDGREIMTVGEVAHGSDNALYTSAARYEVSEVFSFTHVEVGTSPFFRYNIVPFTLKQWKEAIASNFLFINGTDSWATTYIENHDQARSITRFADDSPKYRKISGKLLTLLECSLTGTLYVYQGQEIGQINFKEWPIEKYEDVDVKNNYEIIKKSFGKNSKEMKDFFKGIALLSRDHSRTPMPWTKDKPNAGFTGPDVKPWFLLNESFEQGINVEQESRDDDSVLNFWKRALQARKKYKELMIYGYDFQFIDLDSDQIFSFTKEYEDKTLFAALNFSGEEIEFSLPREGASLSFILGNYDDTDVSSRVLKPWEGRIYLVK
Source text: As the result, with increasing concentration of compound 5k, Vmax values remained constant while Km values increased.
In vitro assays (inhibition effects and kinetics) of the new compounds 5a–n performed according to pervious reported work[15] (Supplementary Information S1).

[4] = read-out: IC50 against α-glucosidase

Chain of yeast α-glucosidase (P53341 whole entry): as above

| melting point | IC50 (yeast α-glucosidase; [4]) | Structure (SMILES) | IC50 (yeast α-glucosidase) | also measured |
| --- | --- | --- | --- | --- |
| 259 to 261 °C | 78.8 ± 0.3 µM | O=C(Cn1cc(CNC(=O)c2cc3ccccc3[nH]2)nn1)Nc1ccc([N+](=O)[O-])cc1 [Compound 5m, N-((1-(2-((4-nitrophenyl)amino)-2-oxoethyl)-1H-1,2,3-triazol-4-yl)methyl)-1H-indole-2-carboxamide] |  |  |
|  |  | O=C(Cn1cc(CNC(=O)c2c3ccccc3nc3ccccc23)nn1)Nc1ccccc1 [Compounds A, R = H] |  | IC50 (α-glucosidase [1]): 171 ± 2.1 µM |
| 254 to 256 °C | 110.3 ± 0.6 µM | O=C(Cn1cc(CNC(=O)c2cc3ccccc3[nH]2)nn1)Nc1cccc([N+](=O)[O-])c1 [Compound 5l, N-((1-(2-((3-nitrophenyl)amino)-2-oxoethyl)-1H-1,2,3-triazol-4-yl)methyl)-1H-indole-2-carboxamide] |  |  |
|  |  | O=C(Cn1cc(CNC(=O)c2c3ccccc3nc3ccccc23)nn1)Nc1ccc([N+](=O)[O-])cc1 [Compounds A, R = 4-NO2] |  | IC50 (α-glucosidase [1]): 152 ± 1.7 µM |
| 203 to 205 °C | 40.2 ± 1.6 µM | CCc1ccc(NC(=O)Cn2cc(CNC(=O)c3cc4ccccc4[nH]3)nn2)cc1 [Compound 5f, N-((1-(2-((4-ethylphenyl)amino)-2-oxoethyl)-1H-1,2,3-triazol-4-yl)methyl)-1H-indole-2-carboxamide] |  | IC50 [2]: > 150 µM |
|  |  | O=C(Cn1cc(CNC(=O)c2c3ccccc3nc3ccccc23)nn1)Nc1ccc(Br)cc1 [Compounds A, R = 4-Br] |  | IC50 (α-glucosidase [1]): 269 ± 2.8 µM |
| 205 to 207 °C | 66 ± 1.8 µM | Cc1cccc(NC(=O)Cn2cc(CNC(=O)c3cc4ccccc4[nH]3)nn2)c1C [Compound 5d, N-((1-(2-((2,3-dimethylphenyl)amino)-2-oxoethyl)-1H-1,2,3-triazol-4-yl)methyl)-1H-indole-2-carboxamide] |  |  |
|  |  | Cc1ccc(NC(=O)Cn2cc(CNC(=O)c3c4ccccc4nc4ccccc34)nn2)cc1 [Compounds A, R = 4-Me] |  | IC50 (α-glucosidase [1]): 519 ± 6.7 µM |
| 233 to 235 °C | 39.6 ± 1.4 µM | O=C(Cn1cc(CNC(=O)c2cc3ccccc3[nH]2)nn1)Nc1ccc(Cl)cc1Cl [Compound 5j, N-((1-(2-((2,4-dichlorophenyl)amino)-2-oxoethyl)-1H-1,2,3-triazol-4-yl)methyl)-1H-indole-2-carboxamide] |  | IC50 [2]: > 150 µM |
|  |  | O=C(Cn1cc(CNC(=O)c2c3ccccc3nc3ccccc23)nn1)Nc1ccc(Cl)cc1 [Compounds A, R = 4-Cl] |  | IC50 (α-glucosidase [1]): 309 ± 3.4 µM |
| 229 to 231 °C | 43.5 ± 0.7 µM | Cc1cc([N+](=O)[O-])ccc1NC(=O)Cn1cc(CNC(=O)c2cc3ccccc3[nH]2)nn1 [Compound 5n, N-((1-(2-((2-methyl-4-nitrophenyl)amino)-2-oxoethyl)-1H-1,2,3-triazol-4-yl)methyl)-1H-indole-2-carboxamide] |  |  |
| 211 to 213 °C |  | O=C(Cn1cc(CNC(=O)c2cc3ccccc3[nH]2)nn1)Nc1cccc(Cl)c1 [Compound 5h, N-((1-(2-((3-chlorophenyl)amino)-2-oxoethyl)-1H-1,2,3-triazol-4-yl)methyl)-1H-indole-2-carboxamide] |  |  |
| 208 to 210 °C | 111 ± 1.6 µM | Cc1cccc(C)c1NC(=O)Cn1cc(CNC(=O)c2cc3ccccc3[nH]2)nn1 [Compound 5e, N-((1-(2-((2,6-dimethylphenyl)amino)-2-oxoethyl)-1H-1,2,3-triazol-4-yl)methyl)-1H-indole-2-carboxamide] |  |  |

| Structure (SMILES) | melting point | IC50 (yeast α-glucosidase; [4]) | IC50 (yeast α-glucosidase) | also measured |
| --- | --- | --- | --- | --- |
| O=C(Cn1cc(CNC(=O)c2cc3ccccc3[nH]2)nn1)Nc1ccc(Cl)cc1 [Compound 5i, N-((1-(2-((4-chlorophenyl)amino)-2-oxoethyl)-1H-1,2,3-triazol-4-yl)methyl)-1H-indole-2-carboxamide] | 225 to 227 °C |  | 83 ± 1.6 µM |  |
| Cc1cccc(NC(=O)Cn2cc(CNC(=O)c3cc4ccccc4[nH]3)nn2)c1 [Compound 5b, N-((1-(2-oxo-2-(m-tolylamino)ethyl)-1H-1,2,3-triazol-4-yl)methyl)-1H-indole-2-carboxamide] | 224 to 226 °C |  | 63.6 ± 1.1 µM |  |
| COc1ccc(NC(=O)Cn2cc(CNC(=O)c3cc4ccccc4[nH]3)nn2)cc1 [Compound 5g, N-((1-(2-((4-methoxyphenyl)amino)-2-oxoethyl)-1H-1,2,3-triazol-4-yl)methyl)-1H-indole-2-carboxamide] | 209 to 211 °C |  | 83 ± 0.7 µM |  |
| O=C(Cn1cc(CNC(=O)c2cc3ccccc3[nH]2)nn1)Nc1ccccc1 [Compound 5a, N-((1-(2-oxo-2-(phenylamino)ethyl)-1H-1,2,3-triazol-4-yl)methyl)-1H-indole-2-carboxamide] | 216 to 218 °C |  | 62.9 ± 0.3 µM |  |
| Cc1ccc(NC(=O)Cn2cc(CNC(=O)c3cc4ccccc4[nH]3)nn2)cc1 [Compound 5c, N-((1-(2-oxo-2-(p-tolylamino)ethyl)-1H-1,2,3-triazol-4-yl)methyl)-1H-indole-2-carboxamide] | 231 to 233 °C |  | 42.6 ± 0.9 µM |  |
| O=C(Cn1cc(CNC(=O)c2cc3ccccc3[nH]2)nn1)Nc1ccc(Br)cc1 [Compound 5k, N-((1-(2-((4-bromophenyl)amino)-2-oxoethyl)-1H-1,2,3-triazol-4-yl)methyl)-1H-indole-2-carboxamide] | 236 to 238 °C |  | 26.8 ± 0.5 µM | IC50 [2]: > 150 µM; improvement in the inhibition effect in comparison to standard inhibitor acarbose (yeast α-glucosidase; ratio of α-glucosidase IC50 values, acarbose vs compound): ~28 fold; type of inhibition (α-glucosidase [3]; Lineweaver–Burk plot, Vmax constant, Km increased): competitive type of inhibition; also recorded: competitive inhibitor; Ki (α-glucosidase [3]; secondary plot of Lineweaver–Burk plots): 26 µM |
